Like-named read-outs stand apart in the source and are kept apart here.
Key:
Syk kinase [1] = molecular target: T1, Syk kinase (Homo sapiens, UniProt P43405); experiment: Syk kinase inhibition, Caliper LabChip off-chip mobility-shift kinase assay; type: biochemical; details: read-out: Syk Enzyme IC50
T1 construct: purchased
Summary of the method: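 Purified Syk pre-incubated 15 min with compound in 100 mM HEPES pH 7.5, 1 mM DTT, 10 mM MgCl2 or MnCl2, 0.002% Brij-35, then 1.5 μM fluorescein peptide and ATP at apparent KM added; 1–1.5 h at room temperature, 4% DMSO, EDTA stop. Microfluidic mobility-shift product/substrate conversion gave % inhibition; IC50 from 12-point series (10–0.00003 μM) by 4-parameter fit.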

[2] = Pharmacokinetic parameters (bioavailability, metabolic stability, half life, compound exposure); details: qualitative statement, values not given
Syk kinase [3] = molecular target: T1, Syk kinase; experiment: Selectivity for Syk kinase over other kinases, receptors, enzymes and transporters; type: biochemical; details: qualitative statement, values not given

SMILES	IC50 (Syk kinase [1]; Caliper LabChip assay)	IC50 (Syk kinase [1])	other results
CC(C)(C)Nc1nc(Nc2cnccn2)cc2ccn(C[C@@H](O)CO)c(=O)c12 [compound 668, (R)-8-(tert-butylamino)-2-(2,3-dihydroxypropyl)-6-(pyrazin-2-ylamino)-2,7-naphthyridin-1(2H)-one]	7 nM	–	pharmacokinetic parameters, such as bioavailablity, enhanced metabolic stability, half life and compound exposure [2]: improved pharmacokinetic parameters
CC(C)(C)Nc1nc(Nc2cc(C(C)(C)O)ncn2)cc2ccn(C3COC3)c(=O)c12 [compound 734]	57 nM	–	selectivity for Syk kinase over other kinases, as well as other receptors, enzymes and transporters (Syk kinase [3]): improved Syk selectivity
CC(C)n1ccc2cc(Nc3c[n+]([O-])ccn3)nc(N[C@H]3CC[C@@H](O)CC3)c2c1=O [compound 1016]	105 nM	–	–
COc1cncc(-c2cc3cc[nH]c(=O)c3c(Nc3ccc(C4CCN(C(C)C(=O)N(C)C)CC4)c(C)c3)n2)n1 (centres unmarked) [compound 170]	–	6 nM	–
CCn1ccc2cc(Nc3cnccn3)nc(NC3(CO)CCCC3)c2c1=O [compound 788]	324 nM	–	–
O=c1[nH]ccc2cc(Nc3ccc(CCN4CCOCC4)cn3)nc(Nc3ccc(N4CCOCC4)cc3)c12 [compound 568]	–	549 nM	–
CC(C)(C)Nc1nc(Nc2cc(-c3cn[nH]c3)ncn2)cc2ccn(CCO)c(=O)c12 [compound 639]	285 nM	–	–
N#CCn1ccc2cc(Nc3cnccn3)nc(NC3CCCC3)c2c1=O [compound 753]	27 nM	–	–
COCCN1CC(c2ccc(Nc3nc(-c4cncc(OC)n4)cc4cc[nH]c(=O)c34)cc2)C1 [compound 150]	–	83 nM	–
CCN1CCN(CCc2ccc(Nc3nc(Nc4ccc(C(F)(F)F)cn4)cc4cc[nH]c(=O)c34)cc2)CC1 [compound 556]	–	631 nM	–
O=c1[nH]ccc2cc(Nc3ccccn3)nc(N[C@@H]3CCC[C@H]3O)c12 (racemic) [compound 277]	–	860 nM	–
Nc1ncc(-c2cc3ccn(C4COC4)c(=O)c3c(NC3CCOCC3)n2)cn1 [compound 770]	36 nM	–	–
Cc1ccnc(Nc2cc3cc[nH]c(=O)c3c(NC3CCC3)n2)c1 [compound 485]	–	45 nM	–
[2H]C([2H])([2H])n1ccc2cc(Nc3cc(C)c(F)cn3)nc(NC3CC3)c2c1=O [compound 547]	–	415 nM	–
CCn1ccc2cc(Nc3cnccn3)nc(NC[C@@H]3CC[C@](C)(O)C3)c2c1=O [compound 415]	–	172 nM	–
COC(=O)CCN1CCC(c2ccc(Nc3nc(-c4cncc(OC)n4)cc4cc[nH]c(=O)c34)cc2C)CC1 [compound 160]	–	81 nM	–
CC(C)(C)Nc1nc(Nc2cc(C(=O)NO)ccn2)cc2ccn(CCO)c(=O)c12 [compound 879]	26 nM	–	–
[2H]C([2H])([2H])n1ccc2cc(Nc3cc(C)c(F)cn3)nc(NC(C)(C)C)c2c1=O [compound 531]	–	296 nM	–

SMILES	IC50 (Syk kinase [1]; Caliper LabChip assay)	IC50 (Syk kinase [1])	other results
CCn1ccc2cc(Nc3cnccn3)nc(N[C@H]3CC[C@@H](O)C3)c2c1=O [compound 425]	–	316 nM	–
CC(C)(C)Nc1nc(Nc2cc(N3CCC(CO)CC3)ccn2)cc2ccn(CCO)c(=O)c12 [compound 847]	500 nM	–	–
COc1cncc(-c2cc3cc[nH]c(=O)c3c(Nc3ccc(CCn4cncn4)cc3)n2)n1 [compound 24]	–	122 nM	–
CC(C)(C)Nc1nc(Nc2cnccn2)cc2ccn(CC(O)CO)c(=O)c12 (centres unmarked) [compound 664, 8-(tert-butylamino)-2-(2,3-dihydroxypropyl)-6-(pyrazin-2-ylamino)-2,7-naphthyridin-1(2H)-one]	7 nM	–	–
Cc1cc(C)nc(Nc2cc3cc[nH]c(=O)c3c(Nc3ccc(C4CCN(C5CC5)CC4)c(C)c3)n2)c1 [compound 256]	–	141 nM	–
CCn1ccc2cc(-c3cnc(N)nc3)nc(NC(C)(C)CO)c2c1=O [compound 904]	4 nM	–	–
CCN1CCC(c2ccc(Nc3nc(-c4cncc(OC)n4)cc4cc[nH]c(=O)c34)cc2C)CC1 [compound 137]	–	10 nM	–
Cn1cc(-c2cc3cc[nH]c(=O)c3c(Nc3ccc([C@H]4CC[C@H](N5CCOCC5)CC4)cc3)n2)cn1 [compound 99]	–	168 nM	–
CC(C)(C)Nc1nc(Nc2cc(CCO)ccn2)cc2ccn(CCO)c(=O)c12 [compound 857]	4 nM	–	–
CCn1ccc2cc(Nc3nccc(O)n3)nc(N[C@@H]3CC[C@@H](O)C3)c2c1=O [compound 960]	61 nM	–	–
CCn1ccc2cc(Nc3cc(C)ccn3)nc(Nc3ccc(C(=O)N4CCC(O)CC4)cc3)c2c1=O [compound 835]	131 nM	–	–
COCCN1CCC(Oc2cc(Nc3cc4ccn(CCO)c(=O)c4c(NC(C)(C)C)n3)ncn2)CC1 [compound 647, 8-(tert-butylamino)-2-(2-hydroxyethyl)-6-(6-(1-(2-methoxyethyl)piperidin-4-yloxy)pyrimidin-4-ylamino)-2,7-naphthyridin-1(2H)-one]	14 nM	–	–
CCN1CCN(CCc2ccc(Nc3nc(-c4cncc(OC)n4)cc4c(F)c[nH]c(=O)c34)cc2)CC1 [compound 440]	–	343 nM	–
Cc1ccnc(Nc2cc3cc[nH]c(=O)c3c(NC3CCN(C)CC3)n2)c1 [compound 550]	–	111 nM	–
COC[C@H](C)Nc1nc(Nc2cc(C)ccn2)cc2cc[nH]c(=O)c12 [compound 530]	–	97 nM	–
CC(C)(C)Nc1nc(-c2cnc(N)nc2)cc2ccn(CCCO)c(=O)c12 [compound 915]	26 nM	–	–
CCn1ccc2cc(Nc3cc(C)ccn3)nc(N[C@H](CO)C(C)(C)C)c2c1=O [compound 806]	568 nM	–	–
Cc1cc(-c2cc3cc[nH]c(=O)c3c(Nc3ccc(C4CCN(C5CC5)CC4)c(C)c3)n2)ccn1 [compound 212]	–	390 nM	–

— US20110053897A1 (IRM LLC, priority 2009, published 2011)
